Experimental data published in patent publication US8247211B2, “Glycopeptide antibiotics” (American Cyanamid Company, priority 2001, dated 2012).
≈ marks a conversion by molar mass, not a printed value.

Tests used:
Assay in all cases: In vitro antibacterial evaluation: minimum inhibitory concentration (MIC), broth dilution method
Assay type in all cases: cell-based
[1] = tested on: Staphylococcus sp.; details: broth dilution, 18 hours at 35° C.
Procedure, shortened: (§1)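 NCCLS M7-A2 broth dilution; Muller-Hinton II […]; 5×10^5 CFU/mL; 64-0.06 μg/mL. MIC = lowest concentration with no growth.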

[2] = tested on: Escherichia coli
Procedure, shortened: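 Susceptibility determined by NCCLS-recommended broth dilution (M7-A2), Muller-Hinton II […]. Concentration span 64-0.06 μg/mL, inoculum 5×10^5 CFU/mL. Isolates include strains resistant to methicillin, penicillin and/or vancomycin.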

[3] = tested on: Enterococcus sp.
Procedure, shortened: as §1

[4] = tested on: Streptococcus sp.
Procedure, shortened: as §1

[5] = broth dilution, inoculum 5×10^5 CFU/mL, 18 hours at 35° C.

CC(c1ccccc1)C1NC(=O)CNC(=O)C(CO)NC(=O)C(C(O)C2CNC(=N)N2C2OC(CO)C(O)C(O)C2O)NC(=O)C(C(O)C2CNC(=N)N2)NC(=O)C(Cc2ccc(OC3OC(CO)C(OC4OC5COC(c6ccc(-c7cccs7)cc6)OC5C(O)C4O)C(O)C3O)cc2)NC1=O (stereo not drawn) [Example 163, Cyclo[glycyl-β-methylphenylalanyl-O-[4-O-[4,6-O-[4-(2-thienyl)benzylidene]hexopyranosyl]-hexopyranosyl]tyrosyl-3-(2-iminoimidazolidin-4-yl)seryl-3-(3-hexopyranosyl-2-iminoimidazolidin-4-yl)serylseryl]]
MIC Coagulase Negative Staphylococcus (GC 4547) ([1]; 5×10^5 CFU/mL): 8 µg/mL (≈ 5.46 µM) | MIC Coagulase Negative Staphylococcus (GC 4548) ([1]; 5×10^5 CFU/mL): 1 µg/mL (≈ 0.682 µM) | MIC Coagulase Negative Staphylococcus (GC 4549) ([1]; 5×10^5 CFU/mL): 4 µg/mL (≈ 2.73 µM) | MIC Coagulase Negative Staphylococcus (GC 4551) ([1]; 5×10^5 CFU/mL): 2 µg/mL (≈ 1.36 µM) | MIC Coagulase Negative Staphylococcus (GC 6257) ([1]; 5×10^5 CFU/mL): 2 µg/mL (≈ 1.36 µM) | MIC Staphylococcus aureus (ATCC 29213) ([1]; 5×10^5 CFU/mL): 4 µg/mL (≈ 2.73 µM) | MIC Staphylococcus aureus (GC 1131) ([1]; 5×10^5 CFU/mL): 4 µg/mL (≈ 2.73 µM) | MIC Staphylococcus aureus (GC 3051) ([1]; 5×10^5 CFU/mL): 8 µg/mL (≈ 5.46 µM) | MIC Staphylococcus aureus (GC 3053) ([1]; 5×10^5 CFU/mL): 8 µg/mL (≈ 5.46 µM) | MIC Staphylococcus aureus (GC 4541) ([1]; 5×10^5 CFU/mL): 4 µg/mL (≈ 2.73 µM) | MIC Staphylococcus aureus (GC 4542) ([1]; 5×10^5 CFU/mL): 4 µg/mL (≈ 2.73 µM) | MIC Staphylococcus aureus (GC 4544) ([1]; 5×10^5 CFU/mL): 4 µg/mL (≈ 2.73 µM) | MIC Staphylococcus aureus (GC 4545) ([1]; 5×10^5 CFU/mL): 4 µg/mL (≈ 2.73 µM) | MIC Staphylococcus aureus-SMITH (GC 4543) ([1]; 5×10^5 CFU/mL): 1 µg/mL (≈ 0.682 µM) | MIC Staphylococcus haemolyticus (GC 4546) ([1]; 5×10^5 CFU/mL): 4 µg/mL (≈ 2.73 µM) | MIC Staphylococcus aureus (ATCC 29213) ([1]; strain ATCC 29213): 4 µg/mL (≈ 2.73 µM) | MIC Staphylococcus aureus (GC 1131) ([1]; strain GC 1131): 4 µg/mL (≈ 2.73 µM) | MIC Staphylococcus aureus (GC 3051) ([1]; strain GC 3051): 8 µg/mL (≈ 5.46 µM) | MIC Staphylococcus aureus (GC 3053) ([1]; strain GC 3053): 8 µg/mL (≈ 5.46 µM) | MIC Staphylococcus aureus (GC 4541) ([1]; strain GC 4541): 4 µg/mL (≈ 2.73 µM) | MIC Staphylococcus aureus (GC 4542) ([1]; strain GC 4542): 4 µg/mL (≈ 2.73 µM) | MIC Staphylococcus aureus-SMITH (GC 4543) ([1]; strain GC 4543): 1 µg/mL (≈ 0.682 µM) | MIC Staphylococcus aureus (GC 4544) ([1]; strain GC 4544): 4 µg/mL (≈ 2.73 µM) | MIC Staphylococcus aureus (GC 4545) ([1]; strain GC 4545): 4 µg/mL (≈ 2.73 µM) | MIC Staphylococcus haemolyticus (GC 4546) ([1]; strain GC 4546): 4 µg/mL (≈ 2.73 µM) | MIC Coagulase Negative Staphylococcus (GC 4547) ([1]; strain GC 4547): 8 µg/mL (≈ 5.46 µM) | MIC Coagulase Negative Staphylococcus (GC 4548) ([1]; strain GC 4548): 1 µg/mL (≈ 0.682 µM) | MIC Coagulase Negative Staphylococcus (GC 4549) ([1]; strain GC 4549): 4 µg/mL (≈ 2.73 µM) | MIC Coagulase Negative Staphylococcus (GC 4551) ([1]; strain GC 4551): 2 µg/mL (≈ 1.36 µM) | MIC Coagulase Negative Staphylococcus (GC 6257) ([1]; strain GC 6257): 2 µg/mL (≈ 1.36 µM) | MIC Escherichia coli (ATCC 25922) ([2]; strain ATCC 25922): >64 µg/mL | MIC Escherichia coli (GC 4559) ([2]; strain GC 4559): 64 µg/mL (≈ 43.7 µM) | MIC Escherichi coli (GC 4560) ([2]; strain GC 4560): 8 µg/mL (≈ 5.46 µM) | MIC Enterococcus avium (GC 4558) [3, 5]: 4 µg/mL (≈ 2.73 µM) | MIC Enterococcus faecalis (ATCC 29212) [3, 5]: 8 µg/mL (≈ 5.46 µM) | MIC Enterococcus faecalis (GC 2242) [3, 5]: 4 µg/mL (≈ 2.73 µM) | MIC Enterococcus faecalis (GC 2691) [3, 5]: 4 µg/mL (≈ 2.73 µM) | MIC Enterococcus faecalis (GC 3059) [3, 5]: 8 µg/mL (≈ 5.46 µM) | MIC Enterococcus faecalis (GC 4552) [3, 5]: 8 µg/mL (≈ 5.46 µM) | MIC Enterococcus faecalis (GC 4553) [3, 5]: 4 µg/mL (≈ 2.73 µM) | MIC Enterococcus faecalis (GC 4554) [3, 5]: 8 µg/mL (≈ 5.46 µM) | MIC Enterococcus faecalis (GC 6189) [3, 5]: 4 µg/mL (≈ 2.73 µM) | MIC Enterococcus faecium (GC 2243) [3, 5]: 8 µg/mL (≈ 5.46 µM) | MIC Enterococcus faecium (GC 4556) [3, 5]: 4 µg/mL (≈ 2.73 µM) | MIC Enterococcus faecium (GC 4557) [3, 5]: 8 µg/mL (≈ 5.46 µM) | MIC Enterococcus faecalis (ATCC 29212) ([3]; strain ATCC 29212): 8 µg/mL (≈ 5.46 µM) | MIC Enterococcus faecalis (GC 2242) ([3]; strain GC 2242): 4 µg/mL (≈ 2.73 µM) | MIC Enterococcus faecium (GC 2243) ([3]; strain GC 2243): 8 µg/mL (≈ 5.46 µM) | MIC Enterococcus faecalis (GC 2691) ([3]; strain GC 2691): 4 µg/mL (≈ 2.73 µM) | MIC Enterococcus faecalis (GC 3059) ([3]; strain GC 3059): 8 µg/mL (≈ 5.46 µM) | MIC Enterococcus faecalis (GC 4552) ([3]; strain GC 4552): 8 µg/mL (≈ 5.46 µM) | MIC Enterococcus faecalis (GC 4553) ([3]; strain GC 4553): 4 µg/mL (≈ 2.73 µM) | MIC Enterococcus faecalis (GC 4554) ([3]; strain GC 4554): 8 µg/mL (≈ 5.46 µM) | MIC Enterococcus faecium (GC 4556) ([3]; strain GC 4556): 4 µg/mL (≈ 2.73 µM) | MIC Enterococcus faecium (GC 4557) ([3]; strain GC 4557): 8 µg/mL (≈ 5.46 µM) | MIC Enterococcus avium (GC 4558) ([3]; strain GC 4558): 4 µg/mL (≈ 2.73 µM) | MIC Enterococcus faecalis (GC 6189) ([3]; strain GC 6189): 4 µg/mL (≈ 2.73 µM) | MIC Streptococcus agalactiae (GC 4564) [4, 5]: <0.5 µg/mL | MIC Streptococcus pneumoniae (ATCC 6301) [4, 5]: <0.5 µg/mL | MIC Streptococcus pneumoniae (GC 1894) [4, 5]: <0.5 µg/mL | MIC Streptococcus pneumoniae (GC 4565) [4, 5]: 1 µg/mL (≈ 0.682 µM) | MIC Streptococcus pyogenes (GC 4563) [4, 5]: <0.5 µg/mL | MIC Streptococcus pneumoniae (ATCC 6301) ([4]; strain ATCC 6301): <0.5 µg/mL | MIC Streptococcus pneumoniae (GC 1894) ([4]; strain GC 1894): <0.5 µg/mL | MIC Streptococcus pyogenes (GC 4563) ([4]; strain GC 4563): <0.5 µg/mL | MIC Streptococcus agalactiae (GC 4564) ([4]; strain GC 4564): <0.5 µg/mL | MIC Streptococcus pneumoniae (GC 4565) ([4]; strain GC 4565): 1 µg/mL (≈ 0.682 µM)
